Experiments:
Format in all cases: in vivo
Bassia scoparia (KCHSC) [1] = test: Herbicidal post-emergence action (Table B11); settings: dosage 1280 g/ha; visual rating about 3 weeks after treatment; 100% = plants have died, 0% = like control plants
In short: (§1)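 Greenhouse pot-grown weeds in sandy loam, sprayed at the one-leaf stage (2–3 weeks post-sowing) with WP or EC formulations plus 0.5% additive at 600 l/ha water, at 1280 or 320 g/ha. Visual % activity versus untreated controls rated about 3 weeks later (100% = dead).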

[2] = system: harmful plants ABUTH, AMARE, ECHCG, LOLRI, MATIN, POAAN, SETVI, STEME, ALOMY, DIGSA, KCHSC and VERPE; test: Herbicidal post-emergence action, summary of Tables B1-B12; settings: application rate of 1280 or 320 g of active ingredient per hectare; summary in words
In short: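 Greenhouse weeds in sandy loam treated post-emergence at the one-leaf stage, 2–3 weeks after sowing, with WP or EC formulations sprayed with 0.5% additive at 600 L/ha water, 1280 or 320 g/ha. Damage rated visually after about 3 weeks versus untreated controls (0% = like control, 100% = dead).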

[3] = system: Matricaria inodora (MATIN); test: Herbicidal post-emergence action (Table B7); settings: rated visually after about 3 weeks, 100% = plants have died, 0% = like control plants
Protocol: Seeds of mono- and dicotyledonous weed plants were placed in plastic pots in sandy loam soil (doubly sown with in each case one species of mono- or dicotyledonous weed plants per pot), covered with soil and cultivated in a greenhouse under controlled growth conditions. 2 to 3 weeks after sowing, the test plants were treated at the one-leaf stage. The compounds of the invention, formulated in the form of wettable powders (WP) or as emulsion concentrates (EC), were applied onto the green parts of the plants as aqueous suspension or emulsion with addition of 0.5% additive at a water application rate of 600 liters per hectare (converted). After the test plants had been kept in the greenhouse under optimum growth conditions for about 3 weeks, the activity of the preparations was rated visually in comparison to untreated controls. For example, 100% activity=the plants have died, 0% activity=like control plants. Tables B1 to B12 below show the effects of selected compounds of the general formula (I) according to Table 1 on various harmful plants and an application rate corresponding to 1280 or 320 g/ha, which were obtained by the experimental procedure mentioned above.

[4] = system: Digitaria sanguinalis (DIGSA); test: Herbicidal pre-emergence action, test C (Table C10); settings: dosage 1280 g/ha; visual scoring after about 3 weeks; 100% = plants have died, 0% = like control plants
In short: (§2)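 Compounds formulated as WP or EC were sprayed onto soil covering freshly sown weed seeds at 600 L/ha water with 0.5% additive, at 1280 or 320 g/ha. Pots were kept in a greenhouse. After about 3 weeks, damage was scored visually as % versus untreated controls (100% = plants dead).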

[5] = system: Alopecurus myosuroides (ALOMY); test: Herbicidal post-emergence action (Table B9); settings: rated visually after about 3 weeks, 100% = plants have died, 0% = like control plants
In short: as §1

Veronica persica (VERPE) [6] = test: Herbicidal pre-emergence action, test C (Table C12); settings: visual scoring vs untreated controls
In short: as §2

[7] = system: Echinochloa crus-galli (ECHCG); test: Herbicidal pre-emergence action, test C (Table C1); settings: dosage 1280 g/ha; visual scoring after about 3 weeks; 100% = plants have died, 0% = like control plants
In short: as §2

Stellaria media (STEME) [8] = test: Herbicidal pre-emergence action, test C (Table C8); settings: visual scoring after about 3 weeks, 100% = plants have died, 0% = like control plants
In short: as §2

Setaria viridis (SETVI) = test: Herbicidal pre-emergence action, test C (Table C4); settings: dosage 1280 g/ha; visual scoring after about 3 weeks; 100% = plants have died, 0% = like control plants
In short: as §2

[9] = system: Abutilon theophrasti (ABUTH); test: Herbicidal post-emergence action (Table B5); settings: rated visually after about 3 weeks, 100% = plants have died, 0% = like control plants
In short: as §1

[10] = system: Alopecurus myosuroides (ALOMY); test: Herbicidal pre-emergence action, test C (Table C9); settings: visual scoring after about 3 weeks, 100% = plants have died, 0% = like control plants
In short: as §2

Stellaria media (STEME) [11] = test: Herbicidal post-emergence action (Table B8); settings: visual rating about 3 weeks after treatment, 100% = plants have died, 0% = like control plants
In short: as §1

[12] = system: Amaranthus retroflexus (AMARE); test: Herbicidal pre-emergence action, test C (Table C6); settings: visual scoring after about 3 weeks, 100% = plants have died, 0% = like control plants
In short: as §2

[13] = system: Amaranthus retroflexus (AMARE); test: Herbicidal post-emergence action (Table B6); settings: dosage 1280 g/ha; visual rating about 3 weeks after treatment; 100% = plants have died, 0% = like control plants
In short: as §1

[14] = system: Echinochloa crus-galli (ECHCG); test: Herbicidal post-emergence action (Table B1); settings: 1280 g/ha; rated visually after about 3 weeks; 100% = plants have died, 0% = like control plants
In short: as §1

Poa annua (POAAN) [15] = test: Herbicidal post-emergence action (Table B3); settings: rated visually after about 3 weeks, 100% = plants have died, 0% = like control plants
In short: as §1

[16] = system: harmful plants ABUTH, AMARE, ECHCG, LOLRI, MATIN, POAAN, SETVI, STEME, ALOMY, DIGSA, KCHSC and VERPE; test: Herbicidal pre-emergence action (test C), summary of Tables C1-C12; settings: application rate of 1280 or 320 g of active ingredient per hectare; summary in words
In short: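 Pre-emergence pot test in sandy loam: WP or EC formulations were sprayed onto the covering soil with 0.5% additive at 600 L/ha water, at 1280 or 320 g/ha. Plants were kept in the greenhouse, and activity was rated visually about 3 weeks later as % versus untreated controls (100% = dead).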

[17] = system: Matricaria inodora (MATIN); test: Herbicidal pre-emergence action, test C (Table C7); settings: visual scoring after about 3 weeks, 100% = plants have died, 0% = like control plants
In short: as §2

Bassia scoparia (KCHSC) [18] = test: Herbicidal pre-emergence action, test C (Table C11); settings: dosage 1280 g/ha, visual scoring vs untreated controls
In short: as §2

[19] = system: Abutilon theophrasti (ABUTH); test: Herbicidal pre-emergence action, test C (Table C5); settings: visual scoring after about 3 weeks, 100% = plants have died, 0% = like control plants
In short: as §2

Poa annua (POAAN) [20] = test: Herbicidal pre-emergence action, test C (Table C3); settings: visual scoring after about 3 weeks, 100% = plants have died, 0% = like control plants
In short: as §2

Veronica persica (VERPE) [21] = test: Herbicidal post-emergence action (Table B12); settings: visual rating about 3 weeks after treatment, 100% = plants have died, 0% = like control plants
In short: as §1

Poa annua (POAAN) [22] = test: Herbicidal early post-emergence action (Table A3); settings: 1900 g/ha; scored visually 9 to 12 days after treatment; 100% = plants have died, 0% = like control plants
Protocol: (§3) Seeds of monocotyledonous and dicotyledonous weed plants were placed in 96-well microtiter plates in quartz sand and grown in a climatized chamber under controlled growth conditions. 5 to 7 days after sowing, the test plants were treated at the cotyledon stage. The compounds according to the invention, formulated in the form of emulsion concentrates (EC), were applied with a water application rate of the equivalent of 2200 liters per hectare. After the test plants had been left to stand in the climatized chamber for 9 to 12 days under optimum growth conditions, the effect of the preparations was scored visually in comparison to untreated controls. For example, 100% activity=the plants have died, 0% activity=like control plants. Tables A1 to A8 below show the effects of selected compounds of the general formula (I) according to Table 1 on various harmful plants and an application rate corresponding to 1900 g/ha, which were obtained by the experimental procedure mentioned above.

[23] = system: harmful plants AGSTE, DIPTE, LOLPE, MATCH, POAAN, SETVI, STEME and VERPE; test: Herbicidal early post-emergence action, summary of Tables A1-A8; settings: application rate of 1900 g of active ingredient per hectare; summary in words
Protocol: as §3, with “plants.” for “plants. Tables A1 to A8 below show the effects of selected compounds of the general formula (I) according to Table 1 on various harmful plants and an application rate corresponding to 1900 g/ha, which were obtained by the experimental procedure mentioned above.”
Tables A1 to A8 below show the effects of selected compounds of the general formula (I) according to Table 1 on various harmful plants and an application rate corresponding to 1900 g/ha, which were obtained by the experimental procedure mentioned above.
As the results of Tables A1-A8 show, compounds no.

Agrostis tenuis (AGSTE) = test: Herbicidal early post-emergence action (Table A1); settings: 1900 g/ha; scored visually 9 to 12 days after treatment; 100% = plants have died, 0% = like control plants
Protocol: as §3

Cc1cc(C)c(-c2cc(C(F)F)no2)c(Oc2ccccn2)c1 [Example 1-86] was tested, and the “Post-emergence action against Bassia scoparia (KCHSC)” value (Bassia scoparia (KCHSC) [1]) was 90%, the “herbicidal activity against the harmful plants of Tables B1-B12 in post-emergence treatment” value [2] was “very good herbicidal activity” and the “Post-emergence action against Matricaria inodora (MATIN)” value ([3]; 320 g/ha) was 100%. The “Post-emergence action against Matricaria inodora (MATIN)” value ([3]; 1280 g/ha) was 100%, the “Pre-emergence action against Digitaria sanguinalis (DIGSA)” value [4] was 100% and the “Post-emergence action against Alopecurus myosuroides (ALOMY)” value ([5]; 320 g/ha) was 100%. For the same compound, the “Post-emergence action against Alopecurus myosuroides (ALOMY)” value ([5]; 1280 g/ha) was 100%, the “Pre-emergence action against Veronica persica (VERPE)” value (Veronica persica (VERPE) [6]; dosage 320 g/ha) was 90% and the “Pre-emergence action against Veronica persica (VERPE)” value (Veronica persica (VERPE) [6]; dosage 1280 g/ha) was 100%. The “Pre-emergence action against Echinochloa crus-galli (ECHCG)” value [7] was 100%, the “Pre-emergence action against Stellaria media (STEME)” value (Stellaria media (STEME) [8]; dosage 320 g/ha) was 90% and the “Pre-emergence action against Stellaria media (STEME)” value (Stellaria media (STEME) [8]; dosage 1280 g/ha) was 100%. The “Pre-emergence action against Setaria viridis (SETVI)” value (Setaria viridis (SETVI)) was 100%, the “Post-emergence action against Abutilon theophrasti (ABUTH)” value ([9]; 320 g/ha) was 100% and the “Post-emergence action against Abutilon theophrasti (ABUTH)” value ([9]; 1280 g/ha) was 100%. For the same compound, the “Pre-emergence action against Alopecurus myosuroides (ALOMY)” value ([10]; dosage 320 g/ha) was 90%, the “Pre-emergence action against Alopecurus myosuroides (ALOMY)” value ([10]; dosage 1280 g/ha) was 90% and the “Post-emergence action against Stellaria media (STEME)” value (Stellaria media (STEME) [11]; dosage 320 g/ha) was 100%. For the same compound, the “Post-emergence action against Stellaria media (STEME)” value (Stellaria media (STEME) [11]; dosage 1280 g/ha) was 100%, the “Pre-emergence action against Amaranthus retroflexus (AMARE)” value ([12]; dosage 320 g/ha) was 100% and the “Pre-emergence action against Amaranthus retroflexus (AMARE)” value ([12]; dosage 1280 g/ha) was 100%. The “Post-emergence action against Amaranthus retroflexus (AMARE)” value [13] was 100%, the “Post-emergence action against Echinochloa crus-galli (ECHCG)” value [14] was 100% and the “Post-emergence action against Poa annua (POAAN)” value (Poa annua (POAAN) [15]; 320 g/ha) was 100%. The “Post-emergence action against Poa annua (POAAN)” value (Poa annua (POAAN) [15]; 1280 g/ha) was 100%, the “herbicidal activity against the harmful plants of Tables C1-C12 in pre-emergence treatment” value [16] was “very good herbicidal activity” and the “Pre-emergence action against Matricaria inodora (MATIN)” value ([17]; dosage 320 g/ha) was 90%. For the same compound, the “Pre-emergence action against Matricaria inodora (MATIN)” value ([17]; dosage 1280 g/ha) was 100%, the “Pre-emergence action against Bassia scoparia (KCHSC)” value (Bassia scoparia (KCHSC) [18]) was 100% and the “Pre-emergence action against Abutilon theophrasti (ABUTH)” value ([19]; dosage 320 g/ha) was 90%. For the same compound, the “Pre-emergence action against Abutilon theophrasti (ABUTH)” value ([19]; dosage 1280 g/ha) was 100%, the “Pre-emergence action against Poa annua (POAAN)” value (Poa annua (POAAN) [20]; dosage 320 g/ha) was 90% and the “Pre-emergence action against Poa annua (POAAN)” value (Poa annua (POAAN) [20]; dosage 1280 g/ha) was 100%. The “Post-emergence action against Veronica persica (VERPE)” value (Veronica persica (VERPE) [21]; dosage 320 g/ha) was 100% and the “Post-emergence action against Veronica persica (VERPE)” value (Veronica persica (VERPE) [21]; dosage 1280 g/ha) was 100%.

For FC(F)(F)c1ccnc(-c2ccccc2Oc2ccc(Cl)cn2)c1 [Example 1-70], the “Early post-emergence effect against Poa annua (POAAN)” value (“Early post-emergence effect … (POAAN)” below) (Poa annua (POAAN) [22]) was 100%, the “herbicidal activity against the harmful plants of Tables A1-A8 in early post-emergence treatment” value [23] was “very good herbicidal activity” and the “Early post-emergence effect against Agrostis tenuis (AGSTE)” value (“Early post-emergence effect … (AGSTE)” below) (Agrostis tenuis (AGSTE)) was 100%.

In the case of Fc1cc(Cl)cnc1Oc1ccccc1-c1ccc(C(F)(F)F)cn1 [Example 1-66], the “Early post-emergence effect … (POAAN)” value (Poa annua (POAAN) [22]) is reported as 80%, the “herbicidal activity against the harmful plants of Tables A1-A8 in early post-emergence treatment” value [23] is reported as “very good herbicidal activity” and the “Early post-emergence effect … (AGSTE)” value (Agrostis tenuis (AGSTE)) is reported as 100%.

With Cc1ccc(-c2ccccc2Oc2ncc(Cl)cc2F)nc1 [Example 1-106] the “Early post-emergence effect … (POAAN)” value (Poa annua (POAAN) [22]) was 80% and the “herbicidal activity against the harmful plants of Tables A1-A8 in early post-emergence treatment” value [23] was “very good herbicidal activity”.

For CSc1cccc(Oc2ccc(Cl)cn2)c1-c1cc(C(F)F)no1 [Example 1-56], the “Early post-emergence effect … (POAAN)” value (Poa annua (POAAN) [22]) was 100%, the “herbicidal activity against the harmful plants of Tables A1-A8 in early post-emergence treatment” value [23] was “very good herbicidal activity” and the “Early post-emergence effect … (AGSTE)” value (Agrostis tenuis (AGSTE)) was 100%.
